Test results as given in article PMC8208785, “Therapeutic efficacy of novel memantine nitrate MN‐08 in animal models of Alzheimer’s disease” (Aging Cell, 2021).

What was measured:
[1] = toxicology study in beagle dogs (NOAEL); conditions: dog, in vivo
Method: Forty healthy adult beagle dogs were randomly divided into 4 groups of 5 males (weighing 6.43-8.40 kg) and 5 females (weighing 5.39-6.77 kg) each: (1) Placebo group; (2) MN-08 (4 mg/kg) group; (2) MN-08 (12 mg/kg) group; (3) MN-08 (24 mg/kg) group. MN-08 tablets were administered to beagle dogs by gastric gavage for 4 weeks. The no observed adverse effect level (NOAEL) was examined according to previously described (Brownawell, Carmines, & Montesano, 2011).

[2] = system: primary hippocampal neurons; assay: intracellular Ca2+ by Fluo-4 confocal microscopy in primary hippocampal neurons; format: cell-based, rat; conditions: glutamate 100 µM
Method: Rat hippocampal neurons were obtained from 18-day-old Sprague-Dawley rat embryos as previously described with modifications (Subramaniam et al., 2005). The hippocampi were obtained and dissected on ice. Then, the hippocampi were digested with 0.25 % trypsin at 37°C for 15 min. The single neurons were mechanically dissociated by using a Pasteur pipette. The neurons were plated at a density of 2×10^5 cells/mL on 35-mm culture dishes, which were pre-coated with poly-L-lysine (10 μg/mL), in neurobasal eagle’s medium containing 10 % fetal bovine serum, 0.5 mM glutamine, 100 units/mL of penicillin, 100 μg/mL of streptomycin. […]
A confocal laser scanning microscope was used to evaluate relative changes in intracellular calcium concentrations [Ca^2+]i by monitoring Fluo-4 fluorescence after intracellular cleavage of superfused Fluo-4 acetoxymethylester (1 μM, with excitation at 488 nm and emission at 510 nm) (Bkaily, Al-Khoury, Simon, & Jacques, 2017). […] The fluorescence images were obtained by Leica TCS SPE Confocal Microscope and analyzed using the LAS AF software (Leica Microsystems Co., Wetzlar and Mannheim, Germany). The data were obtained by evaluating the fluorescence (F) from selected areas within a cell, following subtraction of background fluorescence, and division by the fluorescence intensity before drug application (F0), expressed as F/F0. […]

[3] = system: ERK and PI3K/Akt/GSK3β pathway; assay: Western blotting of p-ERK, p-Akt, p-GSK3β and Bcl-2 in glutamate-challenged CGNs; format: cell-based, rat; conditions: for upregulation of ERK1/2 phosphorylation induced by glutamate: 2 h pre‐treatment, glutamate 0.5 h
From the text: To further characterize the neuroprotection of MN‐08, the level of the key signaling molecules, such as ERK, Akt, and GSK3β, was examined by Western blotting assay. […] Moreover, pre‐treatment with MN‐08 reversed expression of both p‐Akt and p‐GSK3β with the challenge of glutamate. Akt is an important downstream member of PI3K. To further confirm whether the PI3K/Akt pathway was associated with the neuroprotection of MN‐08 against glutamate‐induced excitotoxicity, specific PI3K inhibitor LY294002 was applied and incubated with MN‐08. […] Taken together, MN‐08 might protect against glutamate‐induce cytotoxicity by reversing the dysregulations of ERK pathway and PI3K/Akt/GSK3β pathway.
Western blotting analysis was performed as previously described with minor modifications (Huang, Li, & Nan, 2017). Proteins were extracted from hippocampal tissue and their concentrations determined by the BCA protein assay kit (Fdbio science, Hangzhou, China). The protein (20 μg) was separated on a 12% SDS-PAGE gel and then transferred to PVDF membranes. The membranes were blocked using 5 % nonfat dry milk for 2 h. The protein blots were incubated with the corresponding primary antibodies against p-Akt (#4060, 1:1000, Cell Signaling Technology), Akt (#4685, 1:1000, Cell Signaling Technology), BACE1 (#5606, 1:1000, Cell Signaling Technology), PS1 (#5643, 1:1000, Cell Signaling Technology), p-GSK3β (#5558, 1:1000, Cell Signaling Technology), GSK3β (#12456, 1:1000, Cell Signaling Technology), Bcl-2 (#3498, 1:1000, Cell Signaling Technology), Bax (#5023, 1:1000, Cell Signaling Technology), Cleaved caspase-3 (#9661, 1:1000, Cell Signaling Technology), Caspase-3 (#9662, 1:1000, Cell Signaling Technology), ADAM10 (#14194, 1:1000, Cell Signaling Technology), APP (#ab241592, 1:1000, Abcam), sAPPα (#ab126723, 1:1000, Abcam), NEP (#ab216341, 1:1000, Abcam), Synapsin I (#ab64581, 1:1000, Abcam), Synapsin II (#ab76494, 1:1000, Abcam), NR2A (#ab124913, 1:2000, Abcam), PSD95 (#ab18258, 1:1000, Abcam), Synaptophysin (#ab32127, 1:1000, Abcam), IDE (#ab133561, 1:1000, Abcam), Drebin (#ab178408, 1:1000, Abcam) and Tau-5 (#ab80579, 1:2000, Abcam) overnight at 4°C. After washing 3 times, the membranes were incubated with the respective HRP-conjugated secondary antibody. ECL Western blotting Detection Reagents (Fdbio science, Hangzhou, China) were used to perform Chemiluminescence detection. Quantitative analysis of protein bands was conducted by the Carestream system (Carestream Health, Inc, USA).
CGNs were prepared from the 8-day-old Sprague–Dawley rats as described in our previous publication (Li et al., 2005). Briefly, animals were anesthetized and sacrificed, and their cerebella were collected. Then, the freshly collected cerebella were rinsed in cold Kreb’s buffer-BSA and digested with 0.025 % trypsin incubated in a 37°C for 15 min. The reaction was stopped, and the single cell suspension was obtained through pipetting up and down the sedimentary tissue. CGNs were seeded in basal modified Eagle’s medium (ThermoFisher Scientific, Waltham, MA, USA) supplemented with 10 % fetal bovine serum, 25 mM KCl, 2 mM glutamine and 100 units/mL penicillin/streptomycin at a density of 1.5×10^6 cells/mL. Cytosine arabinoside (10 μM) was added to inhibit the growth of non-neuronal cells at 24 h after seeding. All experiments were carried out after 8 days in vitro. […]

| Structure (SMILES) | NOAEL at 4 weeks ([1]; both sexes, beagle, po) | intracellular Ca2+ influx caused by glutamate ([2]; MN‐08 30 µM) | expression of both p‐Akt and p‐GSK3β with the challenge of glutamate ([3]; MN‐08 30 µM pre‐treatment) | upregulation of ERK1/2 phosphorylation induced by glutamate ([3]; MN‐08 30 µM) | Bcl‐2 downregulation caused by glutamate ([3]; pre‐treatment MN‐08 30 µM) | NOAEL ([1]; beagle dogs, memantine, regimen not stated, read-out: no observed adverse effect level (NOAEL)) | intracellular Ca2+ influx caused by glutamate ([2]; memantine 10 µM) | upregulation of ERK1/2 phosphorylation induced by glutamate ([3]; memantine 10 µM) |
| --- | --- | --- | --- | --- | --- | --- | --- | --- |
| CCC12CC3CC(N)(C1)CC(CO[N+](=O)[O-])(C3)C2 (centres unmarked) [MN‐08] | 24 mg/kg | inhibited | reversed | significantly inhibited | significantly reversed | – | – | – |
| CC12CC3CC(C)(C1)CC(N)(C3)C2 [memantine, 1‐amino‐3,5‐dimethyladamantane] | – | – | – | – | – | 9 mg/kg | inhibited | significantly inhibited |
